In one assay the target is T1, HbS (Homo sapiens, UniProt P69905).
T1 construct: whole blood suspensions from subjects with homozygous SCD (Hct of 20%); from tissue; host or cells: whole blood / red blood cells of patients with homozygous SS sickle cell disease; lysate for HPLC and OEC
The assay can be described thus: Hb modification (HbS adduct formation) by cation-exchange HPLC of lysates from SS cells. The assay is classed as cell-based. To be noted: SS cells, 20% hematocrit, HPLC of hemolysates. The procedure: (§1) For our previously studied compounds (e.g., INN-312, TD-7, SAJ-310, INN-298) that incorporate methoxyPy substitution to vanillin analogs, we observed a significant increase in functional and biological activity as a result of increased protein interactions[31],[33],[35],[36]. We therefore expected similar effects for VZHE-039, which we tested by following VZHE-039 activity (measured by Hb adduct formation, P50-shift and RBC sickling inhibition) using SS blood. Briefly, we incubated 0.5, 1, and 2 mM concentrations of VZHE-039 with whole blood suspensions from subjects with homozygous SCD (Hct of 20%) under hypoxic conditions (2.5% O2/97.5% N2) at 37 °C for 2 h for expected peak adduct. Aliquot blood samples were drawn into a fixative (2% glutaraldehyde solution), and sickling was assessed by microscopy[31],[33],[35],[36]. Aliquot samples were also subjected to cation-exchange HPLC analyses to assess the degree of Hb modification to the high-affinity adduct form (Hb adduct formation), as well as standard O2 equilibrium curves (OEC) to assess P50-shifts using hemox analyzer[31],[33],[35],[36]. […] The improved potency of Voxelotor has been attributed to reduced binding stoichiometry, i.e. while Voxelotor binds Hb at a 1:1 ratio, VZHE-039 binds Hb at a 2:1 ratio. […] This observation, as will be discussed later is likely due to a meaningful contribution from the novel O2-independent antisickling activity as result of the strong contact with the αF-helix.
(§2) The effect of VZHE-039 on RBC sickling, Hb modification, and Hb oxygen equilibrium was studied utilizing samples from consented individuals with homozygous SCD following previous procedure. Briefly, blood suspended in Hemox buffer and supplemented with glucose and bovine serum albumin, to a final hematocrit of 20% were incubated under air in the absence or presence of 0.5 mM, 1 mM and 2 mM VZHE-039 at 37 °C for 1 h. This was followed by incubating the suspensions under hypoxic conditions (2.5% O2/97.5% N2) at 37 °C for 2 h. Aliquot samples were obtained and fixed with 2% glutaraldehyde solution without exposure to air, and then subjected to microscopic morphological analysis of bright field images (at × 40 magnification) of single layer cells on an Olympus BX40 microscope fitted with an Infinity 2 camera (Olympus), and the coupled Image Capture software. Leftover samples were washed in phosphate-buffer saline, and hemolyzed in hypotonic lysis buffer for subsequent Hb-modification and oxygen equilibrium analyses.
Finally, for the Hb adduct formation studies, the above clarified lysates were subjected to cation-exchange HPLC (Hitachi D-7000 Series, Hitachi Instruments, Inc., San Jose, CA), using a weak cation-exchange column (Poly CAT A: 30 mm × 4.6 mm, Poly LC, Inc., Columbia, MD). A commercial standard consisting of approximately equal amounts of composite HbF, HbA, HbS and HbC (Helena Laboratories, Beaumont, TX), was utilized as the reference for isotypes. The areas of new peaks, representing HbS adducts, were obtained, calculated as percentage fractions of total Hb area, and reported as levels of modified Hb.

A further assay addresses T2, CYP2C19 (Homo sapiens, UniProt P33261).
T2 construct: 0.2–0.5 mg/mL pooled human liver microsomes; from tissue; host or cells: pooled human liver microsomes
The experiment in a line: In vitro CYP inhibition, pooled human liver microsomes. The assay is classed as in vitro ADME. To be noted: substrate S-Mephentoin. The procedure:
(§3) Next, we tested VZHE-039 at concentrations of 0.1 to 100 µM, considered to be biologically relevant unbound plasma concentrations, for possible CYP inhibition using pooled human liver microsomes and isozyme-specific probe substrates (CYP1A2, CYP2C8, CYP2C9, CYP2C19, CYP2D6, CYP3A4, CYP2B6)[55].
(§4) VZHE-039 was studied for its inhibitory potential of seven major drug metabolizing human cytochrome P450 (CYP) enzymes (CYP1A2, CYP2C8, CYP2C9, CYP2C19, CYP2D6, CYP3A4, CYP2B6) using pooled human liver microsomes as published previously[26],[55]. The probe substrates include tacrine (CYP1A2), amodiaquine (CYP2C8), tolbutamide (CYP2C9), mephenytoin (CYP2C19), dextromethorphan (CYP2D6), midazolam (CYP3A4), testosterone (CYP3A4), and bupropion (CYP2B6). […] Assay conditions were optimized for each human cytochrome P450 substrate. The optimized reaction mixtures (200 μL) contained a final concentration of 0.2–0.5 mg/mL pooled human liver microsomes, 2 mM NADPH in 100 mM potassium phosphate, pH 7.4 buffer with 5 mM MgCl2, and VZHE-039 concentration of 0.1 to 100 µM. The assays were performed in duplicate in 96-well plates at 37 °C for 10–60 min. The reaction was terminated with addition of methanol, followed by incubation at 4 °C for 10 min and centrifuged at 4 °C for 10 min. Effect of VZHE-039 on formation of the respective probe substrate metabolites (velnacrine, N‐desethylamodiaquine, 4-hydroxytolbutamide, 4′-hydroxymephenytoin, dextrophan, 1′-hydroxymidazolam, and 6β-hydroxtestosterone and hydroxybupropion) were determined using LC–MS/MS.
Background: Liver microsomes are vesicles of endoplasmic reticulum, rich in cytochrome P450 enzymes.

Another assay has as its target T3, CYP2D6 (Homo sapiens, UniProt P10635).
T3 construct: 0.2–0.5 mg/mL pooled human liver microsomes; from tissue; host or cells: pooled human liver microsomes
The description is as above. To be noted: substrate Dextromethorphan. The assay is classed as in vitro ADME. The protocol:
as §3, §4

In the next assay the target is T4, CYP2C9 (Homo sapiens, UniProt P11712).
T4 construct: 0.2–0.5 mg/mL pooled human liver microsomes; from tissue; host or cells: pooled human liver microsomes
The assay is described as above. The assay is classed as in vitro ADME. To be noted: substrate Tolbutamide. The procedure: as §3, §4

In the next assay the target is T5, CYP3A4 (Homo sapiens, UniProt P08684).
T5 construct: 0.2–0.5 mg/mL pooled human liver microsomes; from tissue; host or cells: pooled human liver microsomes
Described as above. The assay is classed as in vitro ADME. The protocol: as §3, §4

The target in another assay is T6, Hb (Homo sapiens, UniProt P69905).
T6 construct: whole blood suspensions from subjects with homozygous SCD (Hct of 20%); from tissue; host or cells: whole blood / red blood cells of patients with homozygous SS sickle cell disease; lysate for HPLC and OEC
The experiment in a line: Oxygen equilibrium (P50 shift) of lysates from SS cells, Hemox Analyzer. The assay is classed as cell-based. To be noted: 20% hematocrit. The procedure:
as §1, §2
For the oxygen equilibrium studies, 100 μL aliquot samples from the above clarified lysate were added to 4 mL of 0.1 M potassium phosphate buffer, pH 7.0, in cuvettes and subjected to hemoximetry analysis using a Hemox Analyzer (TCS Scientific Corp.) to determine the P50 values.

One may read the IC50 as the point on the concentration scale where inhibition reaches its midpoint. A low value points to inhibition by little substance.

Molecules are shown by their SMILES. Where “and” joins values, the source holds several entries; their conditions need not be identical. Identical values can stand only once.

T6 sequence (P69905 2-142): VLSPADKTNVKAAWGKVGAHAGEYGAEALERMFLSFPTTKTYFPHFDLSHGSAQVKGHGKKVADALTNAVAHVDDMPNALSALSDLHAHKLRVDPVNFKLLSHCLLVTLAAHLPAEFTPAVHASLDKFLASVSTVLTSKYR
T6 sequence (P68871 with tags, fused parts or gaps E7V partner): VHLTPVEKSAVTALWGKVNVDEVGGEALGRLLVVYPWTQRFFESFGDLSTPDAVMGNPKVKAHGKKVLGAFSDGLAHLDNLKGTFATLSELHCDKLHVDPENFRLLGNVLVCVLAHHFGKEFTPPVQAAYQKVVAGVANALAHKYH
T1 sequence (P69905 2-142): as the sequence (P69905 2-142) above
T1 sequence (P68871 with tags, fused parts or gaps E7V partner): as the sequence (P68871 with tags, fused parts or gaps E7V partner) above
T5 sequence (P08684 whole entry): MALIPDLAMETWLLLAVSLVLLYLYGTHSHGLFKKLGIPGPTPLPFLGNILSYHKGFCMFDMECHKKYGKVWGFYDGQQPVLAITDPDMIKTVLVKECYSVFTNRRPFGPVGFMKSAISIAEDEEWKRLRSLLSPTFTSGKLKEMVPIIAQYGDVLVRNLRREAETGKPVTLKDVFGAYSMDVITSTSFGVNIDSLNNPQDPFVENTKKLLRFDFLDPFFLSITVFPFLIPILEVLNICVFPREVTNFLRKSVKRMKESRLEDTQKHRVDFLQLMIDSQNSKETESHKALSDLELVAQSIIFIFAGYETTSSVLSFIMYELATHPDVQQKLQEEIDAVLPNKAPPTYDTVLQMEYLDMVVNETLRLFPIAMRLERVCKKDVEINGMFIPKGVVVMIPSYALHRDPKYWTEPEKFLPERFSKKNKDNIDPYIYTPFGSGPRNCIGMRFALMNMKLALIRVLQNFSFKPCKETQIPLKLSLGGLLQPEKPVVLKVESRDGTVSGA
T3 sequence (P10635 whole entry): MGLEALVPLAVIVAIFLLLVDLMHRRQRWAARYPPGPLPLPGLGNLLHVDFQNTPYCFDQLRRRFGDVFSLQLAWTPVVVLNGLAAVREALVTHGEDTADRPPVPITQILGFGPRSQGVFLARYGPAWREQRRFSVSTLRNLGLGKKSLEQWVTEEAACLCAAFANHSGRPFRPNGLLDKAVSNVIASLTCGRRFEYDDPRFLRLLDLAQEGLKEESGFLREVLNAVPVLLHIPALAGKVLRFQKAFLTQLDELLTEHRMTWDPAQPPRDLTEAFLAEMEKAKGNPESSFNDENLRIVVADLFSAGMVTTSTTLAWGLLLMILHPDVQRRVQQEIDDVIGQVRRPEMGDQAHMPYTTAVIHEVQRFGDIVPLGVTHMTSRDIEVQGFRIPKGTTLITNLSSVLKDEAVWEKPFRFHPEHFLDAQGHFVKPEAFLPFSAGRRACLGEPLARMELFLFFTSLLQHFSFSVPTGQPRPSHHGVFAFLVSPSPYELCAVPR
T4 sequence (P11712 whole entry): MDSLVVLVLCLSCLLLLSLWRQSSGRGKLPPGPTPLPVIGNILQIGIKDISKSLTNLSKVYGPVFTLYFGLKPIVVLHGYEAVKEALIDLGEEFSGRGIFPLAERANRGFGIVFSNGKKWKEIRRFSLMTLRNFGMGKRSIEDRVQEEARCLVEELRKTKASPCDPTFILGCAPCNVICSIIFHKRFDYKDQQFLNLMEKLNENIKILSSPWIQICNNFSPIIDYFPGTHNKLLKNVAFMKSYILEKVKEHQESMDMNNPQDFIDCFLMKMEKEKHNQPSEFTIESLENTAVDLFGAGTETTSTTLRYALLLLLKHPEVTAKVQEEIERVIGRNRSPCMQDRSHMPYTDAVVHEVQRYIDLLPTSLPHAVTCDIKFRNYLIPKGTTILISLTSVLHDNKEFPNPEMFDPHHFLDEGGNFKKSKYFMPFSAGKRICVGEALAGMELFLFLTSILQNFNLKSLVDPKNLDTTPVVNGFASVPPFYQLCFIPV
T2 sequence (P33261 whole entry): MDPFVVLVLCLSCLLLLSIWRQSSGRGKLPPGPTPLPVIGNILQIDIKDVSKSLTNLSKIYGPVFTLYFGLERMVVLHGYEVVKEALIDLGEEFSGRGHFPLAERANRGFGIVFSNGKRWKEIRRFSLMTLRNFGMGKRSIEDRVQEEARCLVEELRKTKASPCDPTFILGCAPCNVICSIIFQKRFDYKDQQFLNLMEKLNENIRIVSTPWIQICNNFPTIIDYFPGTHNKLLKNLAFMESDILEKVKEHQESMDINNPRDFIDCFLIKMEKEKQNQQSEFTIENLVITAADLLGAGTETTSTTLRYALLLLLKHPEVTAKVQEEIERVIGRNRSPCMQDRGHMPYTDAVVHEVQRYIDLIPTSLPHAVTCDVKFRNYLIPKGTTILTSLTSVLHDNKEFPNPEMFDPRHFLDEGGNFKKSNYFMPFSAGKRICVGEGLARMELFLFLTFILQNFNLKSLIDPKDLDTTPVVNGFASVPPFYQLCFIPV

Regarding `O=Cc1c(O)cccc1OCc1cccc(CO)n1` [VZHE-039, 2-((6-(Hydroxymethyl)pyridin-2-yl)methoxy)-6-hydroxybenzaldehyde], the “Hb Modification” value was 38% and 38.0 ± 7.2% at HbS (0.5 mM); 72% and 72.6 ± 6.4% at HbS (1 mM); 97.4 ± 6.7% on HbS (2 mM). The half-inhibitory concentration (IC50) on CYP2C19 was above 100 µM; against CYP2D6, above 100 µM; at CYP2C9, above 100 µM; against CYP3A4 (substrate Midazolam), above 100 µM; against CYP3A4 (substrate Testosterone), 95 µM. For the same molecule, the “P50 Shift (ΔP50)” value on Hb (0.5 mM) is 22% and 22.3 ± 8.7%; at Hb (1 mM), 47% and 46.6 ± 5.4%; on Hb (2 mM), 76% and 75.6 ± 2.5%.

The record behind these values is publication PMC7679387, “VZHE-039, a novel antisickling agent that prevents erythrocyte sickling under both hypoxic and anoxic conditions” (Scientific Reports, 2020).
